Patent publication US20260042827A1, “ANTI-WT1 ANTIGEN-BINDING PROTEINS AND USES THEREOF” (UNIVERSITY HEALTH NETWORK, priority 2022, published 2026)
Where a chain is given by its changes, count along the chain named.

Key:
[1] = target: T1, DP2 (Homo sapiens, UniProt P04440+P20036, A65V/A84D/A85E/K98E); experiment: T2 cell-based competitive binding assay; conditions: T2 cells transduced with DP2; reference peptide Oxy271-287
T1 sequence (P20036 29-260): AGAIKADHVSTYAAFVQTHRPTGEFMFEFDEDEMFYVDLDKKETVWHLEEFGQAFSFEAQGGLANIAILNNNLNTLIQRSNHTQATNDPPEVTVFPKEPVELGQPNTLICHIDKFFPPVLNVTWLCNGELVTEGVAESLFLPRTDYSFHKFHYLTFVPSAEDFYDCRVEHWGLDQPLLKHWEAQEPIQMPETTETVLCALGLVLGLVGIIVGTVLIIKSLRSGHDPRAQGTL
T1 sequence (P04440 30-258 A65V/A84D/A85E/K98E): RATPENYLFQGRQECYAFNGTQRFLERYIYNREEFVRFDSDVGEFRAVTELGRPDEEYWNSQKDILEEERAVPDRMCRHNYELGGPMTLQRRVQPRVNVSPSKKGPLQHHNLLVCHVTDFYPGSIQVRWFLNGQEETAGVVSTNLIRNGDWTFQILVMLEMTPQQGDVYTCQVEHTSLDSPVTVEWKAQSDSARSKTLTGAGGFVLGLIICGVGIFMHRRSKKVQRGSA

[2] = target: T2, DP4 (Homo sapiens, UniProt P04440+P20036); experiment: T2 cell-based competitive binding assay; conditions: T2 cells transduced with DP4; reference peptide Oxy271-287
T2 construct: expressed in transfected cells; host or cells: T2 cells, retrovirally transduced (pMX vector)
T2 sequence (P20036 29-260): T1 sequence (P20036 29-260)
T2 sequence (P04440 30-258): T1 sequence (P04440 30-258 A65V/A84D/A85E/K98E) with V36A, D55A, E56A, E69K

Row | Sequence | IC50 value, displacement of reference peptide [1] | IC50 value, displacement of reference peptide [2]
1 | PGCNKRYFKLSHLQMHSRKHT [WT1328-348] | comparable to TT947-967 | comparable to TT947-967
2 | CMTWNQMNL [WT1235-243, known HLA-A2 restricted peptide, negative control, reference compound] | failed to displace reference peptide at any tested concentration | failed to displace reference peptide at any tested concentration
